Patent publication US10266526B2, “Substituted 1,2,3-triazoles as SMYD inhibitors for treating cancer” (EPIZYME, INC., priority 2014, dated 2019)
pIC50: −log10 of the molar value. Where a name gives a salt, the structure may show the parent alone.

Target: SMYD3 (Homo sapiens (Human), UniProt Q9H7B4)
Assay: SMYD3 biochemical assay (SMYD3 enzyme assay on MEKK2 protein substrate, 3H-SAM scintillation proximity assay)
Conditions: Table 1A; average of n = 1 to n = 50; read-out: SMYD3 Biochem IC50
Excerpt: S-adenosylmethionine (SAM), S-adenosylhomocysteine (SAH), Tris, Tween20, dimethylsulfoxide (DMSO), bovine skin gelatin (BSG), and Tris(2-carboxyethyl)phosphine hydrochloride solution (TCEP) were purchased from Sigma-Aldrich at the highest level of purity possible. ^3H-SAM was purchase from American Radiolabeled Chemicals with a specific activity of 80 Ci/mmol. 384-well opaque white OptiPlates and SPA beads (Perkin Elmer, catalog # RPNQ0013) were purchased from PerkinElmer.
N-terminally GST-tagged MEKK2 (MAP3K2) protein corresponding to reference sequence AAF63496.3 was purchased from Life Technologies (catalog # PV4010). This protein was expressed in High Five insect cells and purified to >85% purity. Protein identity was confirmed by MS/MS analysis after proteolytic digestion. The protein sequence used was:
Full-length human SMYD3 isoform 1 (BAB86333) was inserted into a modified pET21b plasmid containing a His6 tag and TEV and SUMO cleavage sites.
E. coli (BL21 codonplus RIL strain, Stratagene) were transformed with plasmid pEPZ553 by mixing competent cells and plasmid DNA and incubating on ice for 30 minutes followed by heat shock at 42° C. for 1 minute and cooling on ice for 2 minutes. Transformed cells were grown and selected on LB agar with 100 μg/mL ampicillin and 17 μg/mL chloramphenicol at 37° C. overnight. A single clone was used to inoculate 200 mL of LB medium with 100 μg/mL ampicillin and 17 μg/mL chloramphenicol and incubated at 37° C. on an orbital shaker at 180 rpm. Once in log growth, the culture was diluted 1:100 into 2 L of LB medium and grown until OD600 was about 0.3 after which the culture was incubated at 15° C. and 160 rpm. Once OD600 reached about 0.4, IPTG was added to a final concentration of 0.1 mM and the cells were grown overnight at 15° C. and 160 rpm. Cells were harvested by centrifugation at 8000 rpm, for 4 minutes at 4° C. and stored at −80° C. for purification.
The column was washed with Buffer B (Buffer A plus 20 mM imidazole) and His-tagged SMYD3 was eluted with Buffer C (Buffer A plus 300 mM imidazole). The His tag, TEV and SUMO cleavage sites were removed generating native SMYD3 by addition of ULP1 protein at a ratio of 1:200 (ULP1:SMYD3). Imidazole was removed by dialysis overnight in Buffer A. The dialyzed solution was applied to a second Nickel column and the native SMYD3 protein was collected from the column flow-through. The flow-through was dialyzed in Buffer D (25 mM Tris, 5% glycerol, 5 mM β-mercaptoethanol, 50 mM NaCl, pH7.8) and ULP1 was removed using a Q sepharose fast flow column.
General Procedure for SMYD3 Enzyme Assays on MEKK2 Protein Substrate
The assays were all performed in a buffer consisting of 25 mM Tris-Cl pH 8.0, 1 mM TCEP, 0.005% BSG, and 0.005% Tween 20, prepared on the day of use. […] DMSO (1 ul) was added to Columns 11, 12, 23, 24, rows A-H for the maximum signal control and 1 ul of SAH, a known product and inhibitor of SMYD3, was added to columns 11, 12, 23, 24, rows I-P for the minimum signal control. A cocktail (40 ul) containing the SMYD3 enzyme was added by Multidrop Combi (Thermo-Fisher). The compounds were allowed to incubate with SMYD3 for 30 min at room temperature, then a cocktail (10 ul) containing SAM and MEKK2 was added to initiate the reaction (final volume=51 ul). […] The assays were stopped by the addition of non-radiolabeled SAM (10 ul) to a final concentration of 100 uM, which dilutes the ^3H-SAM to a level where its incorporation into MEKK2 is no longer detectable. Radiolabeled MEKK2 was detected using a scintillation proximity assay (SPA). 10 uL of a 10 mg/mL solution of SPA beads in 0.5 M citric acid was added and the plates centrifuged at 600 rpm for 1 min to precipitate the radiolabeled MEKK2 onto the SPA beads.

Sequence of SMYD3 (Q9H7B4 whole entry): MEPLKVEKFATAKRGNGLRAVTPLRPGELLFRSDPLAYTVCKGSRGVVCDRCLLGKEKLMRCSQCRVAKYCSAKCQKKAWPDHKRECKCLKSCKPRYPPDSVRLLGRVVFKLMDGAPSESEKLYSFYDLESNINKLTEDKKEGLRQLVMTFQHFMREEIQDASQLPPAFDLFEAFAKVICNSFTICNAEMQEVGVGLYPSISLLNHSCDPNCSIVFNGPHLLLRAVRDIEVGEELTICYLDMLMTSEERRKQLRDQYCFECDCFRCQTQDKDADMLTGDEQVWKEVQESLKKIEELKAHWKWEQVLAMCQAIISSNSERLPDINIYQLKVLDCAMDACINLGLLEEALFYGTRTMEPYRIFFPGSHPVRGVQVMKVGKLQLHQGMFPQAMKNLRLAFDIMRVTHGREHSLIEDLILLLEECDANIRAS

Point of comparison: `CCc1cccc(C(=O)N[C@@H]2CCN(S(=O)(=O)CCCN)[C@H](C)C2)c1` (racemic) [compound 569, (±)-cis-N-(1-((3-aminopropyl)sulfonyl)-2-methylpiperidin-4-yl)-3-ethylbenzamide], pIC50 5.10. Against it:
- C[C@@H]1C[C@@H](NC(=O)c2ccccc2)CCN1C(=O)C1CCC(N)CC1 (mixture of isomers) [compound 557, (±)-trans-N-(1-(4-aminocyclohexane-1-carbonyl)-2-methylpiperidin-4-yl)benzamide] — lower, < 5.00
- C[C@@H]1C[C@H](NC(=O)c2ccccc2)CCN1C(=O)C1CCC(N)CC1 (mixture of isomers) [compound 558, (±)-cis-N-(1-(4-aminocyclohexane-1-carbonyl)-2-methylpiperidin-4-yl)benzamide] — lower, < 5.00
- C[C@@H]1C[C@@H](NC(=O)c2ccccc2)CCN1S(=O)(=O)CCCN (racemic) [compound 563, (±)-trans-N-(1-((3-aminopropyl)sulfonyl)-2-methylpiperidin-4-yl)benzamide] — lower, < 5.00
- C[C@H]1C[C@@H](NC(=O)c2ccccc2)CCN1C(=O)C1CCC(N)CC1 (mixture of isomers) [compound 567, (±)-cis-N-(1-(4-aminocyclohexane-1-carbonyl)-2-methylpiperidin-4-yl)benzamide] — lower, < 5.00
- C[C@H]1C[C@H](NC(=O)c2ccccc2)CCN1C(=O)C1CCC(N)CC1 (mixture of isomers) [compound 571, (±)-trans-N-(1-(4-aminocyclohexane-1-carbonyl)-2-methylpiperidin-4-yl)benzamide] — lower, < 5.00
- CCc1cccc(C(=O)N[C@H]2CCN(S(=O)(=O)CCCN)[C@H](C)C2)c1 (racemic) [compound 573, (±)-trans-N-(1-((3-aminopropyl)sulfonyl)-2-methylpiperidin-4-yl)-3-ethylbenzamide] — lower, < 5.00
- C[C@@H]1C[C@H](NC(=O)c2ccccc2)CCN1S(=O)(=O)CCCN (stereo in doubt) [compound 564, (±)-cis-N-(1-((3-aminopropyl)sulfonyl)-2-methylpiperidin-4-yl)benzamide] — lower, < 5.00
- C[C@H]1C[C@@H](NC(=O)c2ccccc2)CCN1S(=O)(=O)CCCN (stereo in doubt) [compound 570, (±)-cis-N-(1-((3-aminopropyl)sulfonyl)-2-methylpiperidin-4-yl)benzamide] — lower, < 5.00
- NCCCC(=O)N1CCC(NC(=O)c2ncn[nH]2)CC1 [Cpd. No. 560, N-(1-(4-aminobutanoyl)piperidin-4-yl)-1H-1,2,4-triazole-5-carboxamide] — lower, < 5.00

Same assay, conditions: read-out: SMYD3 Biochem IC50 (μM)*

Point of comparison: `CC(NC(=O)c1ccc2c(c1)CC(=O)N2)C1CCN(C(=O)[C@H](C)N)CC1` (stereo partly drawn) [Cpd. No. 86, N-(1-(1-((S)-2-aminopropanoyl)piperidin-4-yl)ethyl)-2-oxoindoline-5-carboxamide Hydrochloride], IC50 1.43 µM. Against it:
- Cc1cc(C(=O)N[C@H]2CC[C@H](N)CC2)n(Cc2ccccc2)n1 [Cpd. No. 29, N-((1r,4r)-4-aminocyclohexyl)-1-benzyl-3-methyl-1H-pyrazole-5-carboxamide Hydrochloride] — 9.8-fold higher, 14 µM
- CC(NC(=O)c1ccc2[nH]c(=O)[nH]c2c1)C1CCN(C(=O)[C@H](C)N)CC1 (stereo partly drawn) [Cpd. No. 93, N-(1-(1-((S)-2-aminopropanoyl)piperidin-4-yl)ethyl)-2-oxo-2,3-dihydro-1H-benzo[d]imidazole-5-carboxamide] — 4.7-fold higher, 6.76 µM
- CC(NC(=O)c1ccc2[nH]c(=O)oc2c1)C1CCN(C(=O)[C@H](C)N)CC1 (stereo partly drawn) [Cpd. No. 94, N-(1-(1-((S)-2-aminopropanoyl)piperidin-4-yl)ethyl)-2-oxo-2,3-dihydrobenzo[d]oxazole-6-carboxamide Hydrochloride] — 2.8-fold higher, 3.94 µM
- O=C1Cc2cc(C(=O)NCC3CCNCC3)ccc2N1 [Cpd. No. 100, 2-oxo-N-(piperidin-4-ylmethyl)indoline-5-carboxamide Hydrochloride] — 14-fold higher, 20 µM
- CC(=O)Nc1ccc(S(=O)(=O)N2CCC(NC(=O)c3cccnc3)CC2)cc1 [compound 3, N-(1-((4-acetamidophenyl)sulfonyl)piperidin-4-yl)nicotinamide] — higher, > 100 µM
